Measurements: patent publication US20260250519A1, “Copper Containing Compounds and Compositions for Antimicrobial Paint and Coating” (ARXADA, LLC, priority 2022, published 2026)

Assays:
[1] = Compatibility of copper compounds in flat wall paint, visual assessment of dry film for grits; assay type: physicochemical; conditions: 600 ppm Cu in acrylic flat wall paint; dry film inspected for grits
Description: The compatibilities of copper compounds in paint were evaluated via visual assessment of dry film appearance of a flat wall paint (50% PVC, 35% Solid Vol, 45 g/L VOC, Table 1).

[2] = tested on: Aspergillus niger (ATCC 6275), Aureobasidium pullulans (ATCC 9348) and Penicillium citrinum (ATCC 9849); test: ASTM resistance to growth of mold on interior coatings in an environmental chamber; assay type: cell-based; conditions: no Cu additive, Quat level 2000 ppm; 4 weeks in chamber
Description: Two coatings were brushed onto both faces and all edges of wood panel (allowing 1 day between coats). The resulting coated panels were dried at 23±2° C. and 50±5% relative humidity for 4 days. […] In the environmental chamber, the dried coated panels were hung vertically with the bottom approximately 3 inch above the surface of the inoculated soil and with sufficient spacing to allow free circulation of air and to prevent contact between panels or with wall surfaces. […] The degrees of fungal contamination were assessed using the rating scale in Table 9.

[3] = cited from earlier work

Structure (SMILES): O=S(=O)([O-])[O-].[Cu+2] [CuSO4, copper sulfate, reference compound]
- Compatibilities of Copper Compounds in Paint [1]: Incompatible (many grits)

Structure (SMILES): CCCCCCCCCCCCN(C)C [Lauryl Dimethyl Amine, reference compound]
- Avg Rating [2]: 2.7

Structure (SMILES): On1ccccc1=S.On1ccccc1=S.[Cu] [copper pyrithione]
- solubility [3]: 0.03 µg/mL
